Source: ChEMBL document CHEMBL1139487, “Discovery of corticotropin releasing factor 2 receptor selective sauvagine analogues for treatment of skeletal muscle atrophy” (J Med Chem, 2005)
Square brackets hold non-standard residues; d marks the D form. Peptide text beside a SMILES is read from it. pGlu = O=C1CC[C@@H](C(=O)O)N1

What was measured:
[1] = molecular target: T1, Corticotropin-releasing factor receptor 1 (Mus musculus, UniProt P35347); test: In vitro effective concentration for mouse corticotropin releasing factor 1 receptor
T1 sequence (P35347 whole entry): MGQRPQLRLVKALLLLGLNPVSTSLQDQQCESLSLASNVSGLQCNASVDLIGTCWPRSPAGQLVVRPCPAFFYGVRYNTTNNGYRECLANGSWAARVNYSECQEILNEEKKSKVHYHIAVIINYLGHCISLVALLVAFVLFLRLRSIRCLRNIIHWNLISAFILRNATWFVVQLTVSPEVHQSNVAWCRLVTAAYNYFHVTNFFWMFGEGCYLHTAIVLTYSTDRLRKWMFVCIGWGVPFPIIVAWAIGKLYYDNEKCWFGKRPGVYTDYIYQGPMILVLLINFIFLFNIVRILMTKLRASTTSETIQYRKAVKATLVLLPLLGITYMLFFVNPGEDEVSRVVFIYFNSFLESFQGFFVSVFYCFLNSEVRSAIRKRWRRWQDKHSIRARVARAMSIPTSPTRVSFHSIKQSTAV

[2] = molecular target: Corticotropin-releasing factor receptor 2 (Mus musculus, UniProt Q60748); test: In vitro effective concentration for mouse corticotropin releasing factor 2 receptor
Sequence of Corticotropin-releasing factor receptor 2 (Q60748 whole entry): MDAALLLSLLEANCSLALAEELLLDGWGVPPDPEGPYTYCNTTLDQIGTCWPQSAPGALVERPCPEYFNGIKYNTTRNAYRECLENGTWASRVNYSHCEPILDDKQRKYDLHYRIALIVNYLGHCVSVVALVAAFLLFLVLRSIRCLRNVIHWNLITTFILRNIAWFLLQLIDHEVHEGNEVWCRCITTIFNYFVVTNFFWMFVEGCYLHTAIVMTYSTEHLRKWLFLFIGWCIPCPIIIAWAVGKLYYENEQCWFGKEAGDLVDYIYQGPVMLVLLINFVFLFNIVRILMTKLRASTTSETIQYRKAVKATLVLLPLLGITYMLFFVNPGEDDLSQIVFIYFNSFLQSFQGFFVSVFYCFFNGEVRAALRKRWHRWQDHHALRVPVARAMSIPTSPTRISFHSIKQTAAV

Compound	EC50 [1] [nM]	EC50 [2] [nM]
CC[C@H](C)[C@H](NC(=O)[C@@H](NC(=O)[C@H](CC(=O)O)NC(=O)[C@H](CC(C)C)NC(=O)[C@H](CC(C)C)NC(=O)[C@H](CC(C)C)NC(=O)[C@H](CCCNC(=N)N)NC(=O)[C@H](CC(N)=O)NC(=O)[C@H](CC(N)=O)NC(=O)[C@H](C)NC(=O)[C@H](C)NC(=O)[C@H](CCC(N)=O)NC(=O)[C@H](CCC(N)=O)NC(=O)[C@H](CCCCN)NC(=O)[C@H](CCC(=O)O)NC(=O)[C@H](CCCCN)NC(=O)[C@H](CCC(=O)O)NC(=O)[C@H](CCC(N)=O)NC(=O)[C@H](CCCCN)NC(=O)[C@H](CCC(=O)O)NC(=O)[C@@H](NC(=O)[C@H](CCC(=O)O)NC(=O)[C@@H](NC(=O)[C@H](CCSC)NC(=O)[C@H](CCCCN)NC(=O)[C@H](CCCNC(=N)N)NC(=O)[C@H](CC(C)C)NC(=O)[C@H](CC(C)C)NC(=O)[C@@H](NC(=O)[C@H](CC(C)C)NC(=O)[C@@H]1CCCN1C(=O)[C@H](CC(C)C)NC(=O)[C@H](CC(=O)O)NC(=O)[C@@H](NC(=O)[C@H](CO)NC(=O)[C@@H](NC(=O)[C@@H]1CCCN1C(=O)[C@@H]1CCCN1C(=O)CNC(=O)[C@@H]1CCC(=O)N1)[C@@H](C)CC)[C@@H](C)CC)C(C)C)[C@@H](C)CC)[C@@H](C)CC)[C@@H](C)O)C(=O)O	265	5.5
CC[C@H](C)[C@H](NC(=O)[C@@H](NC(=O)[C@H](CC(=O)O)NC(=O)[C@H](CC(C)C)NC(=O)[C@H](CC(C)C)NC(=O)[C@H](CC(C)C)NC(=O)[C@H](CCCNC(=N)N)NC(=O)[C@H](CC(N)=O)NC(=O)[C@H](CC(N)=O)NC(=O)[C@H](C)NC(=O)[C@H](C)NC(=O)[C@H](CCC(N)=O)NC(=O)[C@H](CCC(N)=O)NC(=O)[C@H](CCCCN)NC(=O)[C@H](CCC(=O)O)NC(=O)[C@H](CCCCN)NC(=O)[C@H](CCC(=O)O)NC(=O)[C@H](CCC(N)=O)NC(=O)[C@H](CCCCN)NC(=O)[C@H](CCC(=O)O)NC(=O)[C@@H](NC(=O)[C@H](CCC(=O)O)NC(=O)[C@@H](NC(=O)[C@H](CCSC)NC(=O)[C@H](CCCCN)NC(=O)[C@H](CCCNC(=N)N)NC(=O)[C@H](CC(C)C)NC(=O)[C@H](CC(C)C)NC(=O)[C@H](Cc1ccc(O)cc1)NC(=O)[C@H](CCC(N)=O)NC(=O)[C@@H]1CCCN1C(=O)[C@H](CC(C)C)NC(=O)[C@H](CC(=O)O)NC(=O)[C@@H](NC(=O)[C@H](CO)NC(=O)[C@@H](NC(=O)[C@@H]1CCCN1C(=O)[C@@H]1CCCN1C(=O)CNC(=O)[C@@H]1CCC(=O)N1)[C@@H](C)CC)[C@@H](C)CC)[C@@H](C)CC)[C@@H](C)CC)[C@@H](C)O)C(=O)O	325	10.7
CC[C@H](C)[C@H](NC(=O)[C@@H](NC(=O)[C@H](CC(=O)O)NC(=O)[C@H](CC(C)C)NC(=O)[C@H](CC(C)C)NC(=O)[C@H](CC(C)C)NC(=O)[C@H](CCCNC(=N)N)NC(=O)[C@H](CC(N)=O)NC(=O)[C@H](CC(N)=O)NC(=O)[C@H](C)NC(=O)[C@H](C)NC(=O)[C@H](CCC(N)=O)NC(=O)[C@H](CCC(N)=O)NC(=O)[C@H](CCCCN)NC(=O)[C@H](CCC(=O)O)NC(=O)[C@H](CCCCN)NC(=O)[C@H](CCC(=O)O)NC(=O)[C@H](CCC(N)=O)NC(=O)[C@H](CCCCN)NC(=O)[C@H](CCC(=O)O)NC(=O)[C@@H](NC(=O)[C@H](CCC(=O)O)NC(=O)[C@@H](NC(=O)[C@H](CCSC)NC(=O)[C@H](CCCCN)NC(=O)[C@H](CCCNC(=N)N)NC(=O)[C@H](CC(C)C)NC(=O)[C@H](CC(C)C)NC(=O)[C@@H](NC(=O)[C@H](Cc1ccccc1)NC(=O)[C@@H]1CCCN1C(=O)[C@H](CC(C)C)NC(=O)[C@H](CC(=O)O)NC(=O)[C@@H](NC(=O)[C@H](CO)NC(=O)[C@@H](NC(=O)[C@@H]1CCCN1C(=O)[C@@H]1CCCN1C(=O)CNC(=O)[C@@H]1CCC(=O)N1)[C@@H](C)CC)[C@@H](C)CC)C(C)C)[C@@H](C)CC)[C@@H](C)CC)[C@@H](C)O)C(=O)O	85	5.9
CC[C@H](C)[C@H](NC(=O)[C@@H](NC(=O)[C@H](CC(=O)O)NC(=O)[C@H](CC(C)C)NC(=O)[C@H](CC(C)C)NC(=O)[C@H](CC(C)C)NC(=O)[C@H](CCCNC(=N)N)NC(=O)[C@H](CC(N)=O)NC(=O)[C@H](CC(N)=O)NC(=O)[C@H](C)NC(=O)[C@H](C)NC(=O)[C@H](CCC(N)=O)NC(=O)[C@H](CCC(N)=O)NC(=O)[C@H](CCCCN)NC(=O)[C@H](CCC(=O)O)NC(=O)[C@H](CCCCN)NC(=O)[C@H](CCC(=O)O)NC(=O)[C@H](CCC(N)=O)NC(=O)[C@H](CCCCN)NC(=O)[C@H](CCC(=O)O)NC(=O)[C@@H](NC(=O)[C@H](CCC(=O)O)NC(=O)[C@@H](NC(=O)[C@H](CCSC)NC(=O)[C@H](CCCCN)NC(=O)[C@H](CCCNC(=N)N)NC(=O)[C@H](CC(C)C)NC(=O)[C@H](CC(C)C)NC(=O)[C@H](CCC(N)=O)NC(=O)[C@H](CC(C)C)NC(=O)[C@@H]1CCCN1C(=O)[C@H](CC(C)C)NC(=O)[C@H](CC(=O)O)NC(=O)[C@@H](NC(=O)[C@H](CO)NC(=O)[C@@H](NC(=O)[C@@H]1CCCN1C(=O)[C@@H]1CCCN1C(=O)CNC(=O)[C@@H]1CCC(=O)N1)[C@@H](C)CC)[C@@H](C)CC)[C@@H](C)CC)[C@@H](C)CC)[C@@H](C)O)C(=O)O	423	6.5
CC[C@H](C)[C@H](NC(=O)[C@@H](NC(=O)[C@H](CC(=O)O)NC(=O)[C@H](CC(C)C)NC(=O)[C@H](CC(C)C)NC(=O)[C@H](CC(C)C)NC(=O)[C@H](CCCNC(=N)N)NC(=O)[C@H](CC(N)=O)NC(=O)[C@H](CC(N)=O)NC(=O)[C@H](C)NC(=O)[C@H](C)NC(=O)[C@H](CCC(N)=O)NC(=O)[C@H](CCC(N)=O)NC(=O)[C@H](CCCCN)NC(=O)[C@H](CCC(=O)O)NC(=O)[C@H](CCCCN)NC(=O)[C@H](CCC(=O)O)NC(=O)[C@H](CCC(N)=O)NC(=O)[C@H](CCCCN)NC(=O)[C@H](CCC(=O)O)NC(=O)[C@@H](NC(=O)[C@H](CCC(=O)O)NC(=O)[C@@H](NC(=O)[C@H](CCSC)NC(=O)[C@H](CCCCN)NC(=O)[C@H](CCCNC(=N)N)NC(=O)[C@H](CC(C)C)NC(=O)[C@H](CC(C)C)NC(=O)CNC(=O)[C@H](CC(C)C)NC(=O)[C@@H]1CCCN1C(=O)[C@H](CC(C)C)NC(=O)[C@H](CC(=O)O)NC(=O)[C@@H](NC(=O)[C@H](CO)NC(=O)[C@@H](NC(=O)[C@@H]1CCCN1C(=O)[C@@H]1CCCN1C(=O)CNC(=O)[C@@H]1CCC(=O)N1)[C@@H](C)CC)[C@@H](C)CC)[C@@H](C)CC)[C@@H](C)CC)[C@@H](C)O)C(=O)O ([pGlu]GPPISIDLPLGLLRKMIEIEKQEKEKQQAANNRLLLDTI-OH)	312	21.6
CC[C@H](C)[C@H](NC(=O)[C@@H](NC(=O)[C@H](CC(=O)O)NC(=O)[C@H](CC(C)C)NC(=O)[C@H](CC(C)C)NC(=O)[C@H](CC(C)C)NC(=O)[C@H](CCCNC(=N)N)NC(=O)[C@H](CC(N)=O)NC(=O)[C@H](CC(N)=O)NC(=O)[C@H](C)NC(=O)[C@H](C)NC(=O)[C@H](CCC(N)=O)NC(=O)[C@H](CCC(N)=O)NC(=O)[C@H](CCCCN)NC(=O)[C@H](CCC(=O)O)NC(=O)[C@H](CCCCN)NC(=O)[C@H](CCC(=O)O)NC(=O)[C@H](CCC(N)=O)NC(=O)[C@H](CCCCN)NC(=O)[C@H](CCC(=O)O)NC(=O)[C@@H](NC(=O)[C@H](CCC(=O)O)NC(=O)[C@@H](NC(=O)[C@H](CCSC)NC(=O)[C@H](CCCCN)NC(=O)[C@H](CCCNC(=N)N)NC(=O)[C@H](CC(C)C)NC(=O)[C@H](CC(C)C)NC(=O)[C@H](Cc1ccc(O)cc1)NC(=O)[C@H](Cc1ccc(O)cc1)NC(=O)[C@@H]1CCCN1C(=O)[C@H](CC(C)C)NC(=O)[C@H](CC(=O)O)NC(=O)[C@@H](NC(=O)[C@H](CO)NC(=O)[C@@H](NC(=O)[C@@H]1CCCN1C(=O)[C@@H]1CCCN1C(=O)CNC(=O)[C@@H]1CCC(=O)N1)[C@@H](C)CC)[C@@H](C)CC)[C@@H](C)CC)[C@@H](C)CC)[C@@H](C)O)C(=O)O	102	7
CC[C@H](C)[C@H](NC(=O)[C@@H](NC(=O)[C@H](CC(=O)O)NC(=O)[C@H](CC(C)C)NC(=O)[C@H](CC(C)C)NC(=O)[C@H](CC(C)C)NC(=O)[C@H](CCCNC(=N)N)NC(=O)[C@H](CC(N)=O)NC(=O)[C@H](CC(N)=O)NC(=O)[C@H](C)NC(=O)[C@H](C)NC(=O)[C@H](CCC(N)=O)NC(=O)[C@H](CCC(N)=O)NC(=O)[C@H](CCCCN)NC(=O)[C@H](CCC(=O)O)NC(=O)[C@H](CCCCN)NC(=O)[C@H](CCC(=O)O)NC(=O)[C@H](CCC(N)=O)NC(=O)[C@H](CCCCN)NC(=O)[C@H](CCC(=O)O)NC(=O)[C@@H](NC(=O)[C@H](CCC(=O)O)NC(=O)[C@@H](NC(=O)[C@H](CCSC)NC(=O)[C@H](CCCCN)NC(=O)[C@H](CCCNC(=N)N)NC(=O)[C@H](CC(C)C)NC(=O)[C@H](CC(C)C)NC(=O)[C@H](Cc1ccc(O)cc1)NC(=O)[C@@H](NC(=O)[C@@H]1CCCN1C(=O)[C@H](CC(C)C)NC(=O)[C@H](CC(=O)O)NC(=O)[C@@H](NC(=O)[C@H](CO)NC(=O)[C@@H](NC(=O)[C@@H]1CCCN1C(=O)[C@@H]1CCCN1C(=O)CNC(=O)[C@@H]1CCC(=O)N1)[C@@H](C)CC)[C@@H](C)CC)[C@@H](C)CC)[C@@H](C)CC)[C@@H](C)CC)[C@@H](C)O)C(=O)O	> 1000	22.3
